# Measurements as given in publication PMC8580996, “2-Oxoglutarate derivatives can selectively enhance or inhibit the activity of human oxygenases” (Nature Communications, 2021).
# Values joined by “and” are separate entries in the source; they are usually repeats but may differ in a detail not shown here. Identical values can stand only once.
# Biological target: FIH (Homo sapiens, UniProt Q9NWT6)
# Test: FIH steady-state kinetic parameters (SPE-MS, initial hydroxylation rates)
# Assay type: biochemical
# Design: slope of initial reaction rate: unit not given here
# Description: Final 2OG/2OG derivative concentrations are given in Supplementary Figs. 5 and 6. Reactions were monitored with a rate of ~1 sample/40 s using the same SPE-MS configuration as described above. Data were analyzed as described above and the slopes of the initial reaction rates (Supplementary Figs. 5 and 6) fitted to a Michaelis–Menten plot using non-linear regression (GraphPad Prism 5). […]
# determine kinetic parameters for 2OG derivatives (continues on the following page). Maximum velocities (vapp ) and Michaelis constants (Kapp) of FIH were determined in independent triplicates for 2OG and the 2OG […]
# SPE-MS as described in the Methods section. […]
# acid (LAA), and 20 μM ammonium iron(II) sulfate hexahydrate (FAS, (NH4)2Fe(SO4)2·6H2O) in buffer (50 mM […]
# Tris, 50 mM NaCl, pH 7.5, 20° C). […]
# data are provided as a Source Data file. […]
# concentrations of 2OG; (b) hydroxylation rates used to determine kinetic parameters of FIH for 2OG; (c) time […]
# 3-methyl-2OG (1); (d) hydroxylation rates used to determine kinetic parameters of FIH for 1; (e) time course of […]
# 2OG (12); (f) hydroxylation rates used to determine kinetic parameters of FIH for 12; (g) time course of the FIH- […]
# (h) hydroxylation rates used to determine kinetic parameters of FIH for 14; (i) time course of the FIH-catalyzed […]
# (carboxycarbonyl)cyclopentane-1-carboxylic acid (22); (j) hydroxylation rates used to determine kinetic parameters of FIH for 22.
# Supplementary Figure 6. Hydroxylation rates of FIH-catalyzed CA1-20 hydroxylations used to determine kinetic parameters for 2OG derivatives (continues on the following page). Maximum velocities (vapp ) and […]
# ammonium iron(II) sulfate hexahydrate (FAS, (NH4)2Fe(SO4)2·6H2O) in buffer (50 mM Tris, 50 mM NaCl, pH […]
# Source data are provided as a Source […]
# of 2OG; (b) hydroxylation rates used to determine kinetic parameters of FIH for 2OG; (c) time course of the FIH-catalyzed hydroxylation reaction of the CA1-20 peptide for the shown concentrations of 3-methyl-2OG (1); (d) hydroxylation rates used to determine kinetic parameters of FIH for 1; (e) time course of the FIH -catalyzed hydroxylation reaction of the CA 1-20 peptide for the shown concentrations of 4 -methyl-2OG (12); (f) hydroxylation rates used to determine kinetic parameters of FIH for 12; (g) time course of the FIH-catalyzed hydroxylation reaction of the CA1-20 peptide for the shown concentrations of 4-ethyl-2OG (14); (h) hydroxylation rates used to determine kinetic parameters of FIH for 14; (i) time course of the FIH-catalyzed hydroxylation reaction of the CA1-20 peptide for the shown concentrations of 3-(carboxycarbonyl)cyclopentane-1-carboxylic acid (22); (j) hydroxylation rates used to determine kinetic parameters of FIH for 22.
# FIH, sequence (Q9NWT6 whole entry): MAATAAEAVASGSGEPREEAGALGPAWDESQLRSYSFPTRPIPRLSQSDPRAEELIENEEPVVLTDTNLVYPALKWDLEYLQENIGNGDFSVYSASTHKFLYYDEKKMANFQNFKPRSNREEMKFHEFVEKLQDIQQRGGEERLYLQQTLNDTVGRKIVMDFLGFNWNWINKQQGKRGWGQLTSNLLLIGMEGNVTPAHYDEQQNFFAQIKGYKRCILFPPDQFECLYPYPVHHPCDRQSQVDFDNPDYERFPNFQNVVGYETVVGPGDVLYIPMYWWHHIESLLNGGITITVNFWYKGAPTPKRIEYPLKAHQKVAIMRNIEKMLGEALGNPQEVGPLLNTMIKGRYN
smiles,measurement,setting,value
"CCC(CC(=O)C(=O)O)C(=O)O (centres unmarked) [compound 14, 4-ethyl-2OG]",SPE-MS determined concentration of hydroxylated HIF-1a peptide,"0.5 uM compound 14, time 2.797 min",0.04266 µM and 0.0716 µM and 0.08092 µM
same,SPE-MS determined concentration of hydroxylated HIF-1a peptide,"1 uM compound 14, time 2.797 min",0.09973 µM and 0.05746 µM and 0.08941 µM
same,SPE-MS determined concentration of hydroxylated HIF-1a peptide,"1 uM compound 14, time 3.49667 min",0.115 µM and 0.07268 µM and 0.1031 µM
same,SPE-MS determined concentration of hydroxylated HIF-1a peptide,"1 uM compound 14, time 4.19733 min",0.119 µM
same,SPE-MS determined concentration of hydroxylated HIF-1a peptide,"2 uM compound 14, time 2.098 min",0.07647 µM and 0.1051 µM and 0.08874 µM
same,SPE-MS determined concentration of hydroxylated HIF-1a peptide,"2 uM compound 14, time 2.797 min",0.08846 µM and 0.1193 µM and 0.1194 µM
same,SPE-MS determined concentration of hydroxylated HIF-1a peptide,"2 uM compound 14, time 3.49667 min",0.1173 µM and 0.1355 µM and 0.125 µM
same,SPE-MS determined concentration of hydroxylated HIF-1a peptide,"2 uM compound 14, time 4.19733 min",0.1246 µM and 0.1503 µM and 0.1494 µM
same,SPE-MS determined concentration of hydroxylated HIF-1a peptide,"4 uM compound 14, time 0.699833 min",0.04117 µM and 0.06069 µM and 0.06774 µM
same,SPE-MS determined concentration of hydroxylated HIF-1a peptide,"4 uM compound 14, time 2.098 min",0.09804 µM and 0.1128 µM and 0.1303 µM
same,SPE-MS determined concentration of hydroxylated HIF-1a peptide,"4 uM compound 14, time 2.797 min",0.119 µM and 0.1335 µM and 0.1587 µM
same,SPE-MS determined concentration of hydroxylated HIF-1a peptide,"4 uM compound 14, time 3.49667 min",0.1494 µM and 0.1576 µM and 0.1863 µM
same,SPE-MS determined concentration of hydroxylated HIF-1a peptide,"4 uM compound 14, time 4.19733 min",0.1634 µM and 0.187 µM and 0.2105 µM
same,SPE-MS determined concentration of hydroxylated HIF-1a peptide,"8 uM compound 14, time 0.699833 min",0.05237 µM and 0.05984 µM and 0.05853 µM
same,SPE-MS determined concentration of hydroxylated HIF-1a peptide,"8 uM compound 14, time 2.098 min",0.1084 µM and 0.1284 µM and 0.1223 µM
same,SPE-MS determined concentration of hydroxylated HIF-1a peptide,"8 uM compound 14, time 2.797 min",0.1357 µM and 0.1566 µM and 0.1624 µM
same,SPE-MS determined concentration of hydroxylated HIF-1a peptide,"8 uM compound 14, time 3.49667 min",0.1592 µM and 0.1706 µM and 0.1851 µM
same,SPE-MS determined concentration of hydroxylated HIF-1a peptide,"8 uM compound 14, time 4.19733 min",0.1873 µM and 0.2041 µM and 0.2053 µM
same,SPE-MS determined concentration of hydroxylated HIF-1a peptide,"16 uM compound 14, time 0.699833 min",0.04301 µM and 0.07322 µM and 0.06274 µM
same,SPE-MS determined concentration of hydroxylated HIF-1a peptide,"16 uM compound 14, time 2.098 min",0.1098 µM and 0.1258 µM and 0.1325 µM
same,SPE-MS determined concentration of hydroxylated HIF-1a peptide,"16 uM compound 14, time 2.797 min",0.1413 µM and 0.1532 µM and 0.1654 µM
same,SPE-MS determined concentration of hydroxylated HIF-1a peptide,"16 uM compound 14, time 3.49667 min",0.1747 µM and 0.1882 µM and 0.2002 µM
same,SPE-MS determined concentration of hydroxylated HIF-1a peptide,"16 uM compound 14, time 4.19733 min",0.1989 µM and 0.216 µM and 0.231 µM
same,SPE-MS determined concentration of hydroxylated HIF-1a peptide,"32 uM compound 14, time 0.699833 min",0.0551 µM and 0.06691 µM and 0.07521 µM
same,SPE-MS determined concentration of hydroxylated HIF-1a peptide,"32 uM compound 14, time 2.098 min",0.1143 µM and 0.1231 µM and 0.1358 µM
same,SPE-MS determined concentration of hydroxylated HIF-1a peptide,"32 uM compound 14, time 2.797 min",0.1568 µM and 0.1531 µM and 0.1667 µM
same,SPE-MS determined concentration of hydroxylated HIF-1a peptide,"32 uM compound 14, time 3.49667 min",0.1879 µM and 0.1751 µM and 0.1995 µM
same,SPE-MS determined concentration of hydroxylated HIF-1a peptide,"32 uM compound 14, time 4.19733 min",0.214 µM and 0.2049 µM and 0.2308 µM
same,slope of initial reaction rate,"CA1-20, 1 μM 14",0.002761 and 0.002095 and 0.002277
same,slope of initial reaction rate,"CA1-20, 2 μM 14",0.00488 and 0.004776 and 0.004739
same,slope of initial reaction rate,"CA1-20, 4 μM 14",0.007334 and 0.006606 and 0.007233
same,slope of initial reaction rate,"CA1-20, 8 μM 14",0.009175 and 0.0109 and 0.00922
same,slope of initial reaction rate,"CA1-20, 16 μM 14",0.01109 and 0.0126 and 0.01075
same,slope of initial reaction rate,"CA1-20, 32 μM 14",0.01017 and 0.00931 and 0.01176
same,slope of initial reaction rate,"HIF-1a788-822, 0.5 μM 14",0.000241 and 0.000243 and 0.000366
same,slope of initial reaction rate,"HIF-1a788-822, 1 μM 14",0.000319 and 0.00043 and 0.000499
same,slope of initial reaction rate,"HIF-1a788-822, 2 μM 14",0.000549 and 0.000605 and 0.000685
same,slope of initial reaction rate,"HIF-1a788-822, 4 μM 14",0.000653 and 0.000643 and 0.000856
same,slope of initial reaction rate,"HIF-1a788-822, 8 μM 14",0.000767 and 0.000839 and 0.000864
same,slope of initial reaction rate,"HIF-1a788-822, 16 μM 14",0.00082 and 0.000767 and 0.000893
same,slope of initial reaction rate,"HIF-1a788-822, 32 μM 14",0.000874 and 0.000847 and 0.00081
